In US6270979A (priority 1998, dated 2001):
“Also recorded” adds a separate entry of the source. Counter-ions that a name gives are not always drawn. Like-named read-outs stand apart in the source and are kept apart here.

Key:
[1] = test system: D2 receptor (long splice isoform); assay: D2 receptor cAMP assay in stably transfected HEK293 cells; type: cell-based; details: for negative antagonism at D2 receptor: preliminary, stably transfected HEK293 cells, quinpirole as agonist
[2] = test system: opioid μ receptor; type: cell-based, human
[3] = biological target: epitope-tagged μ opioid receptor (EE-μR) (Rattus norvegicus, UniProt P33535); type: cell-based
Sequence of epitope-tagged μ opioid receptor (EE-μR) (P33535 whole entry): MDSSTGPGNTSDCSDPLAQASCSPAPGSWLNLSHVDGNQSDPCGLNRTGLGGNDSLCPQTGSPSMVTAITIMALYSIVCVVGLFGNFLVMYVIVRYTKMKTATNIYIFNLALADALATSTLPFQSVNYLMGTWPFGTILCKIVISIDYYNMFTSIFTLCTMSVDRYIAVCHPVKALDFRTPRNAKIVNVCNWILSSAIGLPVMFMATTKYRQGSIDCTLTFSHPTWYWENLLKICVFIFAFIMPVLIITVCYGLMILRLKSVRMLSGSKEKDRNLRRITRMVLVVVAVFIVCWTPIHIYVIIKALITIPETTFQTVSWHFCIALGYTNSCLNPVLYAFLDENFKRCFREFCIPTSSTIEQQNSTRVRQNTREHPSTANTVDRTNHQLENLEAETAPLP

[4] = test system: cAMP phosphodiesterase; details: generally recognized; Beavo et al.; cited from earlier work
[5] = biological target: opioid μ receptor (Homo sapiens, UniProt P35372); type: cell-based
Sequence of opioid μ receptor (Homo sapiens, UniProt P35372) (P35372 whole entry): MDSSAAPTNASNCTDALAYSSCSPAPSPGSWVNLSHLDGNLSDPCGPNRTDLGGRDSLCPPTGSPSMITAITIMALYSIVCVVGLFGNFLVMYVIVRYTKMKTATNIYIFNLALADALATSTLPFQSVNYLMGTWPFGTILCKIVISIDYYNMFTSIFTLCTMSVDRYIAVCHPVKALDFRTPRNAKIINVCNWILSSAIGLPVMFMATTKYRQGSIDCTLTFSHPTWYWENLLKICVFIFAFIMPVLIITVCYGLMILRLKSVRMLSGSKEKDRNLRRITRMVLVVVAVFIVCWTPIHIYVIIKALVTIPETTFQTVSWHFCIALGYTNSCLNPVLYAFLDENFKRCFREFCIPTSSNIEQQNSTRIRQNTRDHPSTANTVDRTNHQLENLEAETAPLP

[6] = biological target: T1, μ opioid receptor (Rattus norvegicus, UniProt P33535); details: added acutely, μ and EEμ receptor transfected HEK293 cells
T1 sequence (P33535 whole entry): as the sequence (P33535 whole entry) above

[7] = biological target: T1, μ opioid receptor; assay: Receptor recycling through endocytic vesicles; type: cell-based; design: expressed in transfected cells
[8] = test system: Mice; type: in vivo
[9] = test system: Male ICR mice; details: mouse, in vivo
[10] = test system: opioid μ receptor; details: prior knowledge; cited from earlier work
[11] = test system: PKA; details: known; cited from earlier work
[12] = test system: PKC; details: known; cited from earlier work
[13] = test system: muscarinic m1 receptor mutant m1-E360A; type: cell-based

Molecule: O=C(CCCN1CCC2(CC1)C(=O)NCN2c1ccccc1)c1ccc(F)cc1 [spiperone]
- effect on cAMP levels in absence of agonist ([1]; incubation in absence of agonist, relative to control): decreased cAMP levels relative to control
- negative antagonism at D2 receptor [1]: some degree of negative antagonism

Molecule: CC(C)Cn1c(=O)n(C)c(=O)c2[nH]cnc21 [IBMX, 3-isobutyl-1-methyl-xanthine]
- effect on naloxone cAMP overshoot / formation of μ* when added with morphine pretreatment [2]: suppresses μ* formation; also recorded: capable of preventing formation of the constitutively active μ receptor state
- effect on μ receptor (μ*) phosphorylation [3]: suppressed μ receptor phosphorylation as observed for H7; also recorded: μ receptor kinase inhibitor; also recorded: inhibited μ* receptor phosphorylation
- cAMP phosphodiesterase inhibition [4]: cAMP phosphodiesterase inhibitor

Molecule: OCCN1CCN(CCCN2c3ccccc3Sc3ccc(C(F)(F)F)cc32)CC1 [thuphenazine]
- negative antagonism at D2 receptor [1]: some degree of negative antagonism

Molecule: C[C@@H](NC(=O)[C@@H](N)Cc1ccc(O)cc1)C(=O)NCC(=O)N(C)[C@@H](Cc1ccccc1)C(=O)NCCO [DAMGO]
- classification of opioid drug (agonist / neutral / negative antagonist) [5]: full agonists and are either as effective if not more so than morphine
- receptor phosphorylation, potency and efficacy relative to morphine [3]: slightly more potent and efficacious than morphine
- signaling, potency and efficacy relative to morphine [6]: slightly more potent and efficacious than morphine
- receptor recycling through endocytic vesicles [7]: induced massive receptor recycling through endocytic vesicles

Molecule: C=C1[C@@H](O)[C@@H]2O[C@]3(CC[C@H](/C=C/[C@@H](C)[C@@H]4CC(C)=C[C@@]5(O[C@H](C[C@@](C)(O)C(=O)O)CC[C@H]5O)O4)O3)CC[C@H]2O[C@@H]1[C@@H](O)C[C@H](C)[C@H]1O[C@@]2(CCCCO2)CC[C@H]1C [okadaic acid]
- effect of phosphatase inhibitor on enhancing μ* [2]: ineffective in enhancing μ*

Molecule: N=C(N)NCCNS(=O)(=O)c1cccc2cnccc12 [HA-1004, N(2-guanidinoethyl)-5-isoquinolinesulfonamide hydrochloride]
- effect on naloxone cAMP overshoot / formation of μ* when added with morphine pretreatment [2]: capable of preventing formation of the constitutively active μ receptor state

Molecule: CN1CC[C@]23c4c5ccc(O)c4O[C@H]2[C@@H](O)C=C[C@H]3[C@H]1C5 [morphine]
- analgesia of second morphine dose, saline control ([8]; 10 mg/kg morphine sulfate 5 hours after 100 mg/kg, 30 minutes after saline): 22±14%

Molecule: C=CCN1CC[C@]23c4c5ccc(O)c4O[C@H]2C(=O)CC[C@@]3(O)[C@H]1C5 [naloxone]
- reversal of morphine dependence [9]: does not reverse the dependent state in vivo
- withdrawal jumps [9]: 77±20 jumps

Molecule: D-Phe-Cys-Tyr-D-Trp-Arg-Thr-Pen-Thr-NH2 [CTOP]
- classification of opioid drug (agonist / neutral / negative antagonist) [5]: neutral (null) antagonist; also recorded: neutral antagonists
- effect on cAMP levels / constitutive activity in morphine pretreated cells [5]: not to reverse the constitutive activity of the μ receptor state; also recorded: does not act as an inverse agonist; also recorded: no effect on the constitutively active μ receptor state; also recorded: do not affect cAMP levels; also recorded: no significant effect on cAMP levels in dependent cells
- effect on naloxone cAMP overshoot when combined with naloxone [5]: block the inverse agonist effects of naloxone; also recorded: Reversal of the naloxone cAMP overshoot
- effect on acute depression of cAMP levels by morphine [2]: block the acute effects of morphine; also recorded: reversed the reduction of the cAMP level caused by morphine
- blockade of acute effects of morphine (previously known) [10]: fully block the acute effects of morphine

Molecule: CC(C)C[C@@H](NC(=O)[C@H](Cc1ccccc1)NC(=O)CNC(=O)[C@@H](C)NC(=O)[C@@H](N)Cc1ccc(O)cc1)C(=O)O [DADLE]
- classification of opioid drug (agonist / neutral / negative antagonist) [5]: full agonists and are either as effective if not more so than morphine

Molecule: CCN1CCCC1CNC(=O)c1cc(S(N)(=O)=O)ccc1OC (centres unmarked) [sulpiride]
- negative antagonism at D2 receptor [1]: some degree of negative antagonism

Molecule: CC1CNCCN1S(=O)(=O)c1cccc2cnccc12.Cl.Cl (centres unmarked) [H7, 1-(5-isoquinolinesulfonyl)-2-methylpiperazine dihydrochloride]
- effect on acute depression of cAMP levels by morphine [2]: did not prevent the acute depression of cAMP levels by morphine
- effect on spontaneous cAMP overshoot induced by morphine pretreatment [2]: had some effects on the spontaneous cAMP overshoot
- effect on naloxone cAMP overshoot / formation of μ* when added with morphine pretreatment ([2]; dihydrochloride): abolished the naloxone-induced cAMP overshoot; also recorded: completely prevents the formation of μ* receptors
- reversal of naloxone cAMP overshoot / μ* activity when added after morphine pretreatment ([2]; dihydrochloride): rapidly reverses μ* activity; also recorded: completely reversed the naloxone cAMP overshoot
- analgesia of second morphine dose, after H7 ([8]; mouse, in vivo): 90±10%
- effect on morphine antinociception ([8]; mouse, in vivo): without affecting gross behavior of the animals or morphine antinociception
- reversal of morphine tolerance ([8]; mouse, in vivo, dihydrochloride): fully reversed morphine tolerance; also recorded: completely reversed tolerance; also recorded: reverse morphine tolerance and dependence in mice
- effect on μ receptor (μ*) phosphorylation ([3]; dihydrochloride): strongly inhibits μ receptor phosphorylation; also recorded: inhibited μ* receptor phosphorylation
- effect on gross behavior of the animals [9]: without affecting gross behavior of the animals
- effect on naloxone induced withdrawal jumping [9]: strongly suppressed the number of naloxone precipitated jumps
- protein kinase inhibition PKA [11]: known to inhibit several protein kinases including PKA and PKC
- protein kinase inhibition PKC [12]: known to inhibit several protein kinases including PKA and PKC

Molecule: C=CCN1CC[C@]23c4c5ccc(O)c4O[C@H]2[C@@H](O)C=C[C@H]3[C@H]1C5 [Nalorphine]
- classification of opioid drug (agonist / neutral / negative antagonist) [5]: neutral antagonists
- effect on cAMP levels / constitutive activity in morphine pretreated cells [5]: no significant effect on cAMP levels in dependent cells

Molecule: CN1CCN(CCCN2c3ccccc3Sc3ccc(C(F)(F)F)cc32)CC1 [trifluoperatine]
- negative antagonism at D2 receptor [1]: some degree of negative antagonism

Molecule: COC[C@@H]([C@H](O)[C@H](O)C(=O)NCC[C@H](C)c1nc(/C=C/C[C@@H]2O[C@]3(C[C@@H](O)[C@@H]2C)O[C@H]([C@H](C[C@H](O)[C@H](C)[C@H](O)[C@H](C)/C=C(C)/C(C)=C/C=C/C(C)=C\C#N)OC)[C@H](OP(=O)(O)O)C3(C)C)co1)N(C)C [calyculin A]
- effect on m1-E360A basal activity ([13]; HEK293 cells): enhanced the basal activity

Molecule: CN1[C@@H]2CC[C@H]1C[C@@H](OC(=O)C(CO)c1ccccc1)C2 (some centres unmarked) [atropine]
- effect on m1-E360A basal activity [13]: decreasing effects on m1-E360A basal activity

Molecule: CN1[C@@H]2C[C@@H](OC(=O)[C@H](CO)c3ccccc3)C[C@H]1[C@@H]1O[C@@H]12 [scopolamine]
- classification at m1-E360A [13]: negative antagonists
- effect on m1-E360A basal activity [13]: decreasing effects on m1-E360A basal activity

Molecule: D-Phe-Cys-Tyr-D-Trp-Arg-Thr-Pen-ThrNH2 [CTAP]
- withdrawal jumps [9]: 32±12 jumps

Molecule: O=C(CCCN1CCC(O)(c2ccc(Cl)cc2)CC1)c1ccc(F)cc1 [haloperidol]
- negative antagonism at D2 receptor [1]: some degree of negative antagonism

Molecule: Cl.Cl.NCCNS(=O)(=O)c1cccc2cnccc12 [H9, N-(2-aminoethyl)-5-isoquinolinesulfonamide dihydrochloride]
- effect on naloxone cAMP overshoot / formation of μ* when added with morphine pretreatment [2]: capable of preventing formation of the constitutively active μ receptor state
